According to US20140357512A1, “HISTONE DEACETYLASE (HDAC) BIOMARKERS IN MULTIPLE MYELOMA” (priority 2013, published 2014):

System: human myeloma cell line MM.1S
Assay: SILAC acetylated-lysine peptide profiling, HDAC inhibitor vs DMSO (light/heavy ratio)
Format: cell-based
Excerpt: An embodiment of the invention comprises utilizing the SILAC method in order to quantitate changes in protein expression between two or more populations of cells. The SILAC method is a technique based on mass spectrometry that detects differences in protein abundance among samples using non-radioactive isotopic labeling. The SILAC method is known in the art, and described in detail in Ong et al., “Stable Isotope Labeling by Amino Acids in Cell Culture, SILAC, as a Simple and Accurate Approach to Expression Proteomics”, Molecular & Cellular Proteomics, vol. 1, pp. 376-386 (2002), which is incorporated herein by reference in its entirety.
Briefly, the SILAC method involves growing two populations of cells in cell culture. The first population of cells is grown in growth media containing normal amino acids (“normal media”). The second population of cells is grown in media lacking a standard essential amino acid (such as lysine), but is then supplemented with a non-radioactive, isotopically labeled form of that essential amino acid (such as lysine labeled with ^13C atoms, rather than normal ^12C atoms), which is called “heavy media”. When the two populations of cells are each growing in the medium, they incorporate the amino acids into all of their proteins. The growth of cells maintained in the heavy media is no different from that in normal media. All peptides containing the heavy amino acids are heavier than their normal counterparts. The cells from each of the two populations of cells are lysed. The lysates from each of the two cell populations are then combined. The combined cell lysates are then analyzed by mass spectrometry. Pairs of chemically identical peptides of different stable isotope composition can be differentiated in a mass spectrometer due to their difference in mass. The ratio of peak intensities in the mass spectrum for such peptide pairs reflects the abundance ratio for the two proteins.
This example describes SILAC studies that were performed to compare the effects of three different HDAC inhibitors (Compound A, Compound B, and tubastatin A) to a control on a human multiple myeloma cell line. The HDAC inhibitors were also compared amongst themselves to determine differences in their effects.
A human myeloma cell line MM.1S was grown using either ^12C (light) or ^13C (heavy) lysine containing culture medium. The “heavy” cells were treated with DMSO as the control, and the “light” cells were treated with a single HDAC inhibitor at 37° C. for 6 hours. The heavy and light cells were lysed, and the lysates were mixed in 1:1 ratio and digested with the protease trypsin. The acetylated lysine containing peptides (due to the action of the HDAC inhibitor) in the digested peptide pool were captured by a non-specific anti-acetylated lysine antibody cocktail (the antibodies identify both light and heavy acetylated peptides), and subjected to mass spectrometry analysis in order to identify thousands of individual peptides.
Thousands of peptides were identified in pairs (^12C and ^13C) due to their known mass differences. The amino acid sequence and quantitative ratio (Light/Heavy) of a given peptide in two differentially treated cell lysates were then determined and annotated with their possible protein (gene) sources.
As stated above, three HDAC inhibitors (Compound A, Compound B, and Tubastatin A) were used. Thus, the SILAC method was performed three times, with a different HDAC inhibitor compared to a control each time. Accordingly, there are three pairs of quantitative data in the table below, i.e., Compound A:DMSO, Compound B:DMSO, and Tubastatin A:DMSO. A cut-off of 1.30 fold of change (increase or decrease) was then used to determine “changed” or “+” in the table, and any peptides with a fold of change less than 1.3 fold were determined to be “unchanged” or “0” in the table. Those peptides that were not identified were marked as “NA” in the table. […]

## O=C(NO)c1cnc(NC2(c3cccc(F)c3)CCCCC2)nc1 [Compound B, 2-((1-(3-fluorophenyl)cyclohexyl)amino)-N-hydroxypyrimidine-5-carboxamide]
LCMLYHPDK(ac)HRDPELK (SEQ ID NO: 389), Isoform 3 of DnaJ homolog subfamily C member 11 [45], DNAJC11
  L/H ratio of acetylated peptide: −0.69 log 2
LHSNYYK(ac)HK (SEQ ID NO: 371), Uncharacterized protein C6orf125 [69], C6orf125
  L/H ratio of acetylated peptide: 0.52 log 2
LHYK(ac)HESWLLHR (SEQ ID NO: 385), Deoxycytidine kinase [211], DCK
  L/H ratio of acetylated peptide: −0.43 log 2
LIK(ac)VHLDK (SEQ ID NO: 215), 40S ribosomal protein S7 [155], RPS7
  light to heavy ratio (L/H ratio) of acetylated peptide, log 2 scale: 0.00
LK(ac)ADVFK (SEQ ID NO: 375), Isoform 1 of Chromodomain-helicase-DNA-binding protein 4 [959], CHD4
  L/H ratio of acetylated peptide: −0.45 log 2
LK(ac)AEKYR (SEQ ID NO: 414), Isoform 1 of Leucine-rich repeat and IQ domain-containing protein 3 [557], LRRIQ3
  L/H ratio of acetylated peptide: −1.00 log 2
LMNB1 [261], log 2 scale, drug vs DMSO
  L/H ratio of acetylated peptide LYK(ac)[…] (SEQ ID NO: 4): 0.48
LMNB1 [271], log 2 scale, drug vs DMSO
  L/H ratio of acetylated peptide […](ac)LENAR (SEQ ID NO: 58): 0.00
LNEQK(ac)LAQLEEAK (SEQ ID NO: 133), ATP synthase subunit b mitochondrial [131], ATP5F1
  light to heavy ratio (L/H ratio) of acetylated peptide, log 2 scale: 0.00
LNPK(ac)[…] (SEQ ID NO: 448), Serine hydroxymethyltransferase mitochondrial [200], SHMT2
  L/H ratio of acetylated peptide: −0.41 log 2
LOC390956 [71], log 2 scale, drug vs DMSO
  L/H ratio of acetylated peptide GFGYK(ac)GSCFHR (SEQ ID NO: 59): 0.00
LSLDK(ac)VFR (SEQ ID NO: 226), Stomatin-like protein 2 [145], STOML2
  light to heavy ratio (L/H ratio) of acetylated peptide, log 2 scale: 0.00
LTEAKPVDK(ac)VK (SEQ ID NO: 221), cDNA FLJ60124 highly similar to Mitochondrial dicarboxylate carrier [142], SLC25A10
  light to heavy ratio (L/H ratio) of acetylated peptide, log 2 scale: 0.00
LVQTAELTK(ac)VFEIR (SEQ ID NO: 398), Glia maturation factor gamma [119], GMFG
  L/H ratio of acetylated peptide: −0.80 log 2
LYATMEK(ac)HK (SEQ ID NO: 251), Histone acetyltransferase p300 [1590], EP300
  light to heavy ratio (L/H ratio) of acetylated peptide, log 2 scale: 0.00
Laminin receptor-like protein LAMRL5 [89], SNORA6, RPSAP15, SNORA62, RPSA, drug:DMSO
  light to heavy ratio (L/H ratio) of acetylated peptide AVLK(ac)[…] (SEQ ID NO: 262): 0.00 log 2
Leucine-rich PPR motif-containing protein mitochondrial [1332], gene LRPPRC, inhibitor:DMSO
  light to heavy ratio (L/H ratio) of acetylated peptide SYVSEK(ac)DVTSAK (SEQ ID NO: 628): 0.00 log 2
MAN2A1 [373], log 2 scale, drug vs DMSO
  L/H ratio of acetylated peptide ICCQFDFK(ac)R (SEQ ID NO: 60): 0.00
MEAF6 [69:74], log 2 scale, drug vs DMSO
  L/H ratio of acetylated peptide YLTNQK(ac)NSNSK(ac)NDR (SEQ ID NO: 17): 0.43
MKENQK(ac)[…] (SEQ ID NO: 169), Isoform 2 of Heat shock protein HSP 90-alpha [611], HSP90AA1
  light to heavy ratio (L/H ratio) of acetylated peptide, log 2 scale: 0.00
MLEK(ac)DVCEK (SEQ ID NO: 446), Isoform 1 of Protein RUFY3 [382], RUFY3
  L/H ratio of acetylated peptide: 0.62 log 2
MLK(ac)QMLFR (SEQ ID NO: 433), Proteasome subunit beta type-7 [127], PSMB7
  L/H ratio of acetylated peptide: −0.47 log 2
MLL3 [2809:2814], log 2 scale, drug vs DMSO
  L/H ratio of acetylated peptide TLVLSDK(ac)HSPQK(ac)K (SEQ ID NO: 5): 0.38
MSN [165], log 2 scale, drug vs DMSO
  L/H ratio of acetylated peptide LNK(ac)DQWEER (SEQ ID NO: 10): 0.71
Matrin-3 [473], MATR3, SNHG4, drug:DMSO
  light to heavy ratio (L/H ratio) of acetylated peptide VHLSQK(ac)YK (SEQ ID NO: 343): 0.40 log 2
Matrin-3 [836], MATR3, SNHG4, drug:DMSO
  light to heavy ratio (L/H ratio) of acetylated peptide FLNK(ac)LAEER (SEQ ID NO: 342): −0.44 log 2
Mitochondrial import inner membrane translocase subunit Tim13 [45], gene TIMM13, inhibitor:DMSO
  light to heavy ratio (L/H ratio) of acetylated peptide MTDK(ac)CFR (SEQ ID NO: 573): 0.00 log 2
Mitochondrial import receptor subunit TOM70 [188], gene TOMM70A, drug:DMSO
  light to heavy ratio (L/H ratio), log 2 scale, acetylated peptide YVK(ac)ALFR (SEQ ID NO: 771): 0.00
Mitochondrial trifunctional protein beta subunit (Fragment) [100], gene HADHB, inhibitor:DMSO
  light to heavy ratio (L/H ratio) of acetylated peptide LSLLSK(ac)FR (SEQ ID NO: 564): 0.00 log 2
NAD(P) transhydrogenase mitochondrial [70], NNT, drug:DMSO
  light to heavy ratio (L/H ratio) of acetylated peptide EIFQNEK(ac)R (SEQ ID NO: 288): 0.00 log 2
NAD(P) transhydrogenase mitochondrial [403], NNT, drug:DMSO
  light to heavy ratio (L/H ratio) of acetylated peptide AISPDK(ac)DNFYFDVK (SEQ ID NO: 284): 0.00 log 2
NIDPK(ac)PCTPR (SEQ ID NO: 148), Isoform 1 of DAZ-associated protein 1 [83], DAZAP1
  light to heavy ratio (L/H ratio) of acetylated peptide, log 2 scale: 0.00
